Calls of active or inactive are those of the source. The rule behind the calls is not given here.
Biological target: Metabotropic glutamate receptor 2 (Rattus norvegicus) (UniProt P31421)
Assay: rat mGlu2 allosteric modulation, glutamate curve shift, thallium flux, GIRK cells (AID 588733)
Conditions: glutamate CRC fold shift, at 10 µM, hits give high values

Metabotropic glutamate receptor 2 (Rattus norvegicus), sequence (P31421 whole entry, looked up): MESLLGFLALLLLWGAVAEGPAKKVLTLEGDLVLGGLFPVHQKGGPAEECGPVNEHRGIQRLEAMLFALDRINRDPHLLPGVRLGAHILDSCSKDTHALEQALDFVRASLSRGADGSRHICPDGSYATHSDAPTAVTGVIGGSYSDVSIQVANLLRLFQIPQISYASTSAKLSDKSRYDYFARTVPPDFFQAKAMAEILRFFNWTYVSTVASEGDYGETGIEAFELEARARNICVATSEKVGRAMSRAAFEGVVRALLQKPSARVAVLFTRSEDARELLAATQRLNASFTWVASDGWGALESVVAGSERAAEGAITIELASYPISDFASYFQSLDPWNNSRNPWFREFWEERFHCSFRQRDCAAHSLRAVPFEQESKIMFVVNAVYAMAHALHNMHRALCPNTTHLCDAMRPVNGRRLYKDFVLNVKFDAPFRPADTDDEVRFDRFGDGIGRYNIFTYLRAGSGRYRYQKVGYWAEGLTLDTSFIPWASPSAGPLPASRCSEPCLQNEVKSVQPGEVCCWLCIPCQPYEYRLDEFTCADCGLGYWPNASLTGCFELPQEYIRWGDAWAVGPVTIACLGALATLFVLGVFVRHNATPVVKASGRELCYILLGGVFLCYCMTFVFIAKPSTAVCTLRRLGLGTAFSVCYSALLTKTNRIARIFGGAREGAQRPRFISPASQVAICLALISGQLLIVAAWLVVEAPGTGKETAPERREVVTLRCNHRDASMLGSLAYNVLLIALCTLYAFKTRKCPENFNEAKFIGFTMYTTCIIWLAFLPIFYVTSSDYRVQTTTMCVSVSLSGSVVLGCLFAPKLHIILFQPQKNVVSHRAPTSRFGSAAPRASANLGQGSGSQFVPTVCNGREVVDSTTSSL

SMILES	fold shift
CC1(NC(=O)c2ccc(C#Cc3cccc(F)c3)cn2)COC1	0.92 (inactive)
C[C@@H](NC(=O)c1ccc(C#Cc2cccc(F)c2)cn1)C(C)(C)O	1.02 (inactive)

Reference: PubChem BioAssay AID588733 (Vanderbilt Specialized Chemistry Center, 2011)
